Where two headings read alike, the source gives them in different places.
Columns and labels:
[1] = test system: L929 cells; assay: TNF-induced programmed necrosis of L929 cells (Cell Titer-Glo viability); format: cell-based, mouse; settings: Mus musculus
Protocol: (§1) The biological test protocol is adopted to test effects of the compound on TNF-induced programmed necrosis of FADD (Fas-associated death domain)-deficient Jurkat cells and L929 cells.
(§2) Two different stimulation methods were used: treating with tumor necrosis factor (TNFα) alone, or treating with TNFα in combination of mitochondrial-derived cysteine-aspartate activator (SMAC) SM164. Cell viability was determined by measuring chemiluminescence values, thereby assessing the bioactivity of the compounds in inhibiting programmed cell necrosis.
(§3) Method: FADD-deficient Jurkat cells: FADD-deficient Jurkat cells (human peripheral blood leukemia T cell line) were cultured in vitro. After reaching logarithmic growth phase, cells were collected and centrifuged at 1000 rpm for 5 minutes. A supernatant was discarded. A cell concentration was adjusted to 2.5×10^5/mL, and cells were seeded into a 384-well plate at 40 µL per well. In the corresponding wells, 5 µL of SM164 (50 nM) and compounds diluted with cell culture medium were added. After pre-treatment at 37°C for 1 hour, 5 µL of TNFα (50 ng/mL) diluted with cell culture medium was added to each well as a stimulation group, while 5 µL of culture medium was added as a control group. After the plate was incubated in a cell culture incubator (37°C, 5% CO2) for 14 hours, 15 µL of Cell Titer-Glo solution was added to each well. Then, the plate was incubated at room temperature for 30 minutes. Luminescence was measured to assess intracellular ATP levels. Cell viability was set at 100% for unstimulated DMSO control wells. […] The plate was placed in a cell culture incubator (37°C, 5% CO2) and cultured for 12 hours. In the corresponding wells, 5 µL of SM164 (500 nM) and compounds diluted with cell culture medium were added. After pre-treatment at 37°C for 1 hour, 5 µL of TNFα (500 ng/mL) diluted with cell culture medium was added to the wells as a stimulation group, while 5 µL of culture medium was added as a control group. After the plate was incubated in the cell incubator (37°C, 5% CO2) for 14 hours, 15 µL of Cell Titer-Glo solution was added to each well. Then, the plate was incubated at room temperature for 30 minutes, and luminescence was measured to assess intracellular ATP levels. Cell viability was set at 100% for unstimulated DMSO control wells. EC50 values of the compounds were calculated using Prism GraphPad statistical software.

[2] = test system: FADD-deficient Jurkat cells; assay: TNF-induced programmed necrosis of FADD-deficient Jurkat cells (Cell Titer-Glo viability); format: cell-based, human; settings: for EC50: Homo sapiens, Jurkat
Protocol: as §1, §2, §3

[3] = L929, stimulation with TNFα + SM164, read-out: EC50 (nM) L929 cells (mouse-derived) TNFα+ SM164
[4] = L929, stimulation with TNFα alone, read-out: EC50 (nM) L929 cells (mouse-derived) TNFα
[5] = read-out: EC50 (nM) FADD^-/- Jurkat cells (human-derived) TNFα
[6] = L929, read-out: EC50 (nM) L929 cells (mouse-derived) TNFα
[7] = stimulation with TNFα + SM164, read-out: EC50 (nM) FADD^-/- Jurkat cells (human-derived) TNFα+ SM164
[8] = stimulation with TNFα alone, read-out: EC50 (nM) FADD^-/- Jurkat cells (human-derived) TNFα
[9] = L929, stimulation with TNFα + SM164, µM, read-out: EC50 L929 cells (mouse-derived) TNFα+ SM164
[10] = L929, stimulation with TNFα alone, µM, read-out: EC50 L929 cells (mouse-derived) TNFα

Structure (SMILES)	EC50 [1, 3]	EC50 [1, 4]	EC50 [2, 7]	EC50 [2, 8]	also measured
C[C@H](NC(=O)c1nnn(C)c1Cc1ccccc1)c1ccc(C#Cc2ncc(N)cn2)cc1 [IRCBC-161]	0.002 nM	0.002 nM			
CNc1cnc(C#Cc2ccc([C@H](C)NC(=O)c3nnn(C)c3Cc3ccccc3)cc2)nc1 [IRCBC-160]	0.00234 nM				
[2H]C([2H])([2H])Nc1ccc(C#Cc2ccc([C@H](C)NC(=O)c3nnn(C)c3Cc3ccccc3)cc2)nc1 [IRCBC-150]	0.001 nM	0.001 nM			
C[C@H](NC(=O)c1nnn(C)c1Cc1ccccc1)c1ccc(C#Cc2ncc[nH]2)cc1 [IRCBC-006]					EC50 [2, 5]: 2.03 nM; EC50 [1, 6]: 81.9 nM
C[C@H](NC(=O)c1nnn(C)c1Cc1ccccc1)c1ccc(C#Cc2ccncc2C#N)cc1 [IRCBC-094]	2.16 nM	0.403 nM	0.304 nM	0.001 nM	
C[C@H](NC(=O)c1nnn(C)c1Cc1ccccc1)c1ccc(C#Cc2ncccn2)cc1 [IRCBC-046]	0.43 nM	0.203 nM	0.087 nM	0.001 nM	
C[C@H](NC(=O)c1nnn(C)c1Cc1ccccc1)c1ccc(C#Cc2ccc(N3CCOCC3)cn2)cc1 [IRCBC-105]	0.004 nM	0.008 nM			
C[C@H](NC(=O)c1nnn(C)c1Cc1ccccc1)c1ccc(C#Cc2cnccn2)cc1 [IRCBC-048]					EC50 [2, 5]: 0.018 nM; EC50 [1, 6]: 2.93 nM
CC(=O)Nc1ccc(C#Cc2ccc([C@H](C)NC(=O)c3nnn(C)c3Cc3ccccc3)cc2)nc1 [IRCBC-149]	0.066 nM	0.045 nM	0.003 nM		
CNc1cnc(C#Cc2ccc([C@H](C)NC(=O)c3nnn(C)c3Cc3ccccc3)cc2)cn1 [IRCBC-145]	0.127 nM	0.063 nM	0.007 nM		
Cn1nnc(C(=O)NCc2ccc(C#Cc3ccccn3)c(F)c2)c1Cc1ccccc1 [IRCBC-058]	35.2 nM	1.5 nM	1.25 nM	0.018 nM	
C[C@H](NC(=O)c1nnn(C)c1Cc1ccccc1)c1ccc(C#Cc2ccc(N3CCC3)cn2)cc1 [IRCBC-103]	0.104 nM	0.044 nM	0.001 nM		
Cn1nnc(C(=O)NCc2ccc(C#Cc3ccccn3)cc2F)c1Cc1ccccc1 [IRCBC-059]	14.8 nM	3.07 nM	2.26 nM	0.025 nM	
C[C@H](NC(=O)c1nnn(C)c1Cc1ccccc1)c1ccc(C#Cc2ncc3nc[nH]c3n2)cc1 [IRCBC-129]	0.196 nM	0.06 nM			
C[C@H](NC(=O)c1nnn(C)c1Cc1ccccc1)c1ccc(C#Cc2ccn(C)n2)cc1 [IRCBC-004]					EC50 [2, 5]: 0.019 nM; EC50 [1, 6]: 0.558 nM
COc1cnc(C#Cc2ccc([C@H](C)NC(=O)c3nnn(C)c3Cc3ccccc3)cc2)nc1 [IRCBC-095]	0.052 nM	0.01 nM	0.002 nM		
C[C@H](NC(=O)c1nnn(C)c1Cc1ccccc1)c1ccc(C#Cc2cnoc2)cc1 [QY-18-77]		733 nM	32 nM	0.3 nM	
C[C@H](NC(=O)c1nnn(C)c1Cc1ccccc1)c1ccc(C#Cc2nccn2C)cc1 [IRCBC-002]					EC50 [2, 5]: 0.392 nM; EC50 [1, 6]: 55.7 nM
C[C@H](NC(=O)c1nnn(C)c1Cc1ccccc1)c1ccc(C#Cc2ccc(F)cn2)cc1 [IRCBC-049]					EC50 [2, 5]: 0.002 nM; EC50 [1, 6]: 0.118 nM
C[C@H](NC(=O)c1nnn(C)c1Cc1cccc(Cl)c1)c1ccc(C#Cc2ccccn2)cc1 [IRCBC-016]					EC50 [2, 5]: 1.69 nM; EC50 [1, 6]: 5.85 nM
C[C@H](NC(=O)c1nnn(C)c1Cc1cccc(F)c1)c1ccc(C#Cc2ccccn2)cc1 [QY-20-54]	0.3 nM	0.05 nM	< 0.01 nM	< 0.01 nM	programmed necroptosis inhibitory activity compared to SAR443122 ([2]; TNFα alone or TNFα + SM164, human derived FADD-deficient Jurkat cells): stronger
C[C@H](NC(=O)c1nnn(C)c1Cc1ccccc1)c1ccc(C#Cc2ncccc2C#N)cc1 [IRCBC-121]	0.069 nM	0.012 nM	0.01 nM		
C[C@H](NC(=O)c1nnn(C)c1Cc1ccccc1)c1ccc(C#Cc2ccc(Cl)cn2)cc1 [IRCBC-050]					EC50 [2, 5]: 0.001 nM; EC50 [1, 6]: 0.105 nM

Structure (SMILES)	EC50 [1, 3]	EC50 [1, 4]	EC50 [2, 7]	EC50 [2, 8]	also measured
C[C@H](NC(=O)c1nnn(C)c1Cc1ccccc1)c1ccc(C#Cc2ncc(N3CC(N(C)C)C3)cn2)cc1 [IRCBC-259]	0.001 nM				
C[C@H](NC(=O)c1nnn(C)c1Cc1ccccc1)c1ccc(C#Cc2ccnc(N(C)C)n2)cc1 [IRCBC-100]	1.21 nM	0.561 nM	1.79 nM	0.084 nM	
C[C@H](NC(=O)c1nnn(C)c1Cc1cccc(C#N)c1)c1ccc(C#Cc2ccccn2)cc1 [IRCBC-072]	17.3 nM	1.79 nM	2.73 nM	0.049 nM	
C[C@H](NC(=O)c1nnn(C)c1Cc1ccccc1)c1ccc(C#Cc2c(F)cncc2F)cc1 [IRCBC-091]	1.29 nM	0.455 nM	0.145 nM	0.004 nM	
[2H]C([2H])([2H])Nc1cnc(C#Cc2ccc([C@H](C)NC(=O)c3nnn(C)c3Cc3ccccc3)cc2)nc1 [IRCBC-256]	0.00121 nM				
C[C@H](NC(=O)c1nnn(C)c1Cc1ccccc1)c1ccc(N2CCN(C)C(=O)C2)cc1 [IRCBC-043]			5.11 nM	0.683 nM	EC50 [1, 9]: > 1000 nM; EC50 [1, 10]: > 1000 nM
C[C@H](NC(=O)c1nnn(C)c1Cc1ccccc1)c1ccc(C#Cc2ncc(N3CCOCC3)cc2C#N)cc1 [IRCBC-154]	0.002 nM				
CN1C(=O)N[C@H](Cc2c[nH]c3c(Cl)cccc23)C1=O [Nec-1s, reference compound]					EC50 [2, 5]: 228 nM; EC50 [1, 6]: 443 nM
COc1ccc(C#Cc2ccc([C@H](C)NC(=O)c3nnn(C)c3Cc3ccccc3)cc2)nc1 [IRCBC-052]					EC50 [2, 5]: 0.001 nM; EC50 [1, 6]: 0.068 nM
C[C@H](NC(=O)c1nnn(C)c1Cc1ccccc1)c1ccc(C#Cc2ccnc(N(C)C)c2)cc1 [IRCBC-101]	2.1 nM	0.405 nM	0.582 nM	0.036 nM	
COC(C)(C)C#Cc1ccc([C@H](C)NC(=O)c2nnn(C)c2Cc2ccccc2)cc1 [IRCBC-036]					EC50 [2, 5]: 0.222 nM; EC50 [1, 6]: 13.1 nM
C[C@H](NC(=O)c1nnn(C)c1Cc1ccccc1)c1ccc(C#Cc2ccc(N(C)C)cn2)cc1 [IRCBC-053]	0.011 nM	0.004 nM	0.001 nM		
C[C@H](NC(=O)c1nnn(C)c1Cc1ccccc1)c1ccc(C#Cc2cncn2C)cc1 [QY-20-55]	23 nM	2.2 nM	1.4 nM	0.1 nM	
C[C@H](NC(=O)c1cnn(C)c1Cc1cc(F)cc(F)c1)c1ccc(C#Cc2ccccn2)cc1 [IRCBC-033]	4.11 nM	0.771 nM	1.57 nM	0.066 nM	
C[C@H](NC(=O)c1nnn(C)c1Cc1ccccc1)c1ccc(C#Cc2ccncc2F)cc1 [IRCBC-054]					EC50 [2, 5]: 0.001 nM; EC50 [1, 6]: 0.103 nM
CC(C)N1CCN(c2ccc(C#Cc3ccc([C@H](C)NC(=O)c4nnn(C)c4Cc4ccccc4)cc3)nc2)CC1 [IRCBC-159]	0.006 nM	0.003 nM	0.002 nM		
C[C@H](NC(=O)c1nnn(C)c1Cc1ccccc1)c1ccc(C#Cc2ccc(C(F)(F)F)cn2)cc1 [IRCBC-096]			0.406 nM	0.006 nM	EC50 [1, 9]: > 1000 nM; EC50 [1, 10]: > 1000 nM
CNc1ccc(C#Cc2ccc([C@H](C)NC(=O)c3nnn(C)c3Cc3ccccc3)cc2)nc1 [IRCBC-102]	0.018 nM	0.01 nM			
[2H]C([2H])([2H])Nc1cnc(C#Cc2ccc([C@H](C)NC(=O)c3nnn(C)c3Cc3ccccc3)cc2)c(C#N)c1 [IRCBC-257]	0.00117 nM				
C[C@H](NC(=O)c1nnn(C)c1Cc1ccccc1)c1ccc(C#Cc2ncc(N(C)C)cn2)cc1 [IRCBC-097]	0.003 nM	0.001 nM			
CC(C)Nc1ccc(C#Cc2ccc([C@H](C)NC(=O)c3nnn(C)c3Cc3ccccc3)cc2)nc1 [IRCBC-146]	0.0014 nM				
CC(C)Nc1cnc(C#Cc2ccc([C@H](C)NC(=O)c3nnn(C)c3Cc3ccccc3)cc2)nc1 [IRCBC-269]			0.00168 nM		
